US10131652B2, “Pyrimidinyloxy benzene derivatives as herbicides” (E. I. DU PONT DE NEMOURS AND COMPANY, priority 2014, dated 2018)

Columns and labels:
Type in all cases: in vivo
[1] = system: kochia (Kochia scoparia); experiment: Test B pre-/postemergence plant response
Procedure, shortened: (§1)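 Greenhouse pots, loam/sand soil; compound formulated with surfactant in non-phytotoxic solvent. Preemergence soil spray and postemergence spray at 1–2 leaf stage run simultaneously. Visual injury, 0–100, about 10 days post-treatment.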

[2] = system: Italian ryegrass (Lolium multiflorum); experiment: Test B pre-/postemergence plant response
Procedure, shortened: as §1

[3] = system: ragweed (common ragweed, Ambrosia elatior); experiment: Test B pre-/postemergence plant response
Procedure, shortened: as §1

[4] = system: blackgrass (Alopecurus myosuroides); experiment: Test D pre-/postemergence plant response; conditions: Preemergence; for Plant response rating, Blackgrass: scale 0 to 100 (0 no effect, 100 complete control)
Procedure, shortened: (§2)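 Greenhouse herbicidal response, both pre- and postemergence applications, with solvent/surfactant formulation. Postemergence plants were at 1- to 4-leaf stage. Visual scores 0–100 relative to controls, taken 13 to 15 days later.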

[5] = system: corn (Zea mays); experiment: Test D pre-/postemergence plant response; conditions: Preemergence; for Plant response rating, Corn: scale 0 to 100 (0 no effect, 100 complete control)
Procedure, shortened: as §2

[6] = system: lambsquarters (Chenopodium album); experiment: Test D pre-/postemergence plant response; conditions: Preemergence; for Plant response rating, Lambsquarters: scale 0 to 100 (0 no effect, 100 complete control)
Procedure, shortened: as §2

[7] = system: Italian ryegrass (Lolium multiflorum); experiment: Test D pre-/postemergence plant response; conditions: Preemergence; for Plant response rating, Ryegrass, Italian: scale 0 to 100 (0 no effect, 100 complete control)
Procedure, shortened: as §2

[8] = system: large (Lg) crabgrass (Digitaria sanguinalis); experiment: Test D pre-/postemergence plant response; conditions: Preemergence; for Plant response rating, Crabgrass, Large: scale 0 to 100 (0 no effect, 100 complete control)
Procedure, shortened: as §2

[9] = system: velvetleaf (Abutilon theophrasti); experiment: Test D pre-/postemergence plant response; conditions: Preemergence; for Plant response rating, Velvetleaf: scale 0 to 100 (0 no effect, 100 complete control)
Procedure, shortened: as §2

[10] = system: barnyardgrass (Echinochloa crus-galli); experiment: Test D pre-/postemergence plant response; conditions: Preemergence; for Plant response rating, Barnyardgrass: scale 0 to 100 (0 no effect, 100 complete control)
Procedure, shortened: as §2

[11] = system: giant foxtail (Setaria faberii); experiment: Test D pre-/postemergence plant response; conditions: Preemergence; for Plant response rating, Foxtail, Giant: scale 0 to 100 (0 no effect, 100 complete control)
Procedure, shortened: as §2

[12] = system: pigweed (Amaranthus retroflexus); experiment: Test D pre-/postemergence plant response; conditions: Preemergence; for Plant response rating, Pigweed: scale 0 to 100 (0 no effect, 100 complete control)
Procedure, shortened: as §2

[13] = system: morningglory (Ipomoea coccinea); experiment: Test D pre-/postemergence plant response; conditions: Preemergence; for Plant response rating, Morningglory: scale 0 to 100 (0 no effect, 100 complete control)
Procedure, shortened: as §2

[14] = system: soybean (Glycine max); experiment: Test D pre-/postemergence plant response; conditions: Preemergence; for Plant response rating, Soybean: scale 0 to 100 (0 no effect, 100 complete control)
Procedure, shortened: as §2

[15] = system: waterhemp (common waterhemp, Amaranthus rudis); experiment: Test D pre-/postemergence plant response; conditions: Preemergence; for Plant response rating, Waterhemp: scale 0 to 100 (0 no effect, 100 complete control)
Procedure, shortened: as §2

[16] = 31 g ai/ha, Postemergence, 0 to 100 scale, 0 no effect, 100 complete control
[17] = 125 g ai/ha, postemergence, 0 to 100 scale, 0 no effect, 100 complete control
[18] = Preemergence, 31 g ai/ha, 0 to 100 scale (0 no effect, 100 complete control)
[19] = Preemergence, 125 g ai/ha, 0 to 100 scale where 0 is no effect and 100 is complete control

COc1cccc(Oc2ncc(Cl)cn2)c1-c1cc(C(F)(F)F)no1 [Compound 104]
Plant response rating, Kochia [1, 16]: 50
Plant response rating, Kochia [1, 17]: 80
Kochia plant response rating [1, 18]: 0
Plant response rating, Kochia [1, 19]: 10
Plant response rating, Ryegrass, Italian [2, 16]: 0
Plant response rating, Ryegrass, Italian [2, 17]: 30
Ryegrass, Italian plant response rating [2, 18]: 0
Plant response rating, Ryegrass, Italian [2, 19]: 10
Plant response rating, Ragweed [3, 16]: 10
Plant response rating, Ragweed [3, 17]: 10
Ragweed plant response rating [3, 18]: 0
Plant response rating, Ragweed [3, 19]: 0
Plant response rating (scale 0 to 100), Blackgrass ([4]; 125 g ai/ha): 30
Plant response rating, Blackgrass ([4]; 16 g ai/ha): 0
Plant response rating, Blackgrass ([4]; 31 g ai/ha): 0
Plant response rating, Blackgrass ([4]; 62 g ai/ha): 0
Plant response rating (scale 0 to 100), Corn ([5]; 125 g ai/ha): 0
Plant response rating, Corn ([5]; 16 g ai/ha): 0
Plant response rating, Corn ([5]; 31 g ai/ha): 0
Plant response rating, Corn ([5]; 62 g ai/ha): 0
Plant response rating (scale 0 to 100), Lambsquarters ([6]; 125 g ai/ha): 90
Plant response rating, Lambsquarters ([6]; 16 g ai/ha): 65
Plant response rating, Lambsquarters ([6]; 31 g ai/ha): 80
Plant response rating, Lambsquarters ([6]; 62 g ai/ha): 90
Plant response rating (scale 0 to 100), Ryegrass, Italian ([7]; 125 g ai/ha): 5
Plant response rating, Ryegrass, Italian ([7]; 16 g ai/ha): 0
Plant response rating, Ryegrass, Italian ([7]; 31 g ai/ha): 0
Plant response rating, Ryegrass, Italian ([7]; 62 g ai/ha): 0
Plant response rating (scale 0 to 100), Crabgrass, Large ([8]; 125 g ai/ha): 100
Plant response rating, Crabgrass, Large ([8]; 16 g ai/ha): 65
Plant response rating, Crabgrass, Large ([8]; 31 g ai/ha): 85
Plant response rating, Crabgrass, Large ([8]; 62 g ai/ha): 98
Plant response rating (scale 0 to 100), Velvetleaf ([9]; 125 g ai/ha): 65
Plant response rating, Velvetleaf ([9]; 16 g ai/ha): 25
Plant response rating, Velvetleaf ([9]; 31 g ai/ha): 50
Plant response rating, Velvetleaf ([9]; 62 g ai/ha): 70
Plant response rating (scale 0 to 100), Barnyardgrass ([10]; 62 g ai/ha): 25
Plant response rating (scale 0 to 100), Barnyardgrass ([10]; 125 g ai/ha): 70
Plant response rating, Barnyardgrass ([10]; 16 g ai/ha): 0
Plant response rating, Barnyardgrass ([10]; 31 g ai/ha): 10
Plant response rating (scale 0 to 100), Foxtail, Giant ([11]; 125 g ai/ha): 100
Plant response rating, Foxtail, Giant ([11]; 16 g ai/ha): 30
Plant response rating, Foxtail, Giant ([11]; 31 g ai/ha): 80
Plant response rating, Foxtail, Giant ([11]; 62 g ai/ha): 90
Plant response rating (scale 0 to 100), Pigweed ([12]; 125 g ai/ha): 100
Plant response rating, Pigweed ([12]; 16 g ai/ha): 100
Plant response rating, Pigweed ([12]; 31 g ai/ha): 100
Plant response rating, Pigweed ([12]; 62 g ai/ha): 100
Plant response rating (scale 0 to 100), Morningglory ([13]; 125 g ai/ha): 25
Plant response rating, Morningglory ([13]; 16 g ai/ha): 5
Plant response rating, Morningglory ([13]; 31 g ai/ha): 5
Plant response rating, Morningglory ([13]; 62 g ai/ha): 25
Plant response rating (scale 0 to 100), Soybean ([14]; 125 g ai/ha): 25
Plant response rating, Soybean ([14]; 16 g ai/ha): 10
Plant response rating, Soybean ([14]; 31 g ai/ha): 20
Plant response rating, Soybean ([14]; 62 g ai/ha): 25
Plant response rating (scale 0 to 100), Waterhemp ([15]; 125 g ai/ha): 100
Plant response rating, Waterhemp ([15]; 16 g ai/ha): 100
Plant response rating, Waterhemp ([15]; 31 g ai/ha): 100
Plant response rating, Waterhemp ([15]; 62 g ai/ha): 100
